Earlier results as cited in patent publication US20050000529A1, “Method and compositions for imparting cooling effect to tobacco products” (priority 2001, published 2005).
Entries after “also recorded” stand apart in the source; their conditions may differ.

Columns and labels:
[1] = taste testing; comparison with related compounds
[2] = tap water, triangle test
[3] = tap water, triangle test; remark: listed apart in the source

Structure (SMILES) | cooling activity (in words) [1] | Odor Threshold [2] | Cooling Threshold [3]
CC1=C(N2CCCC2)C(=O)CC1 [Compound 1, 3-methyl-2-(1-pyrrolidinyl)-2-cyclopenten-1-one] | long lasting sensation of coolness; also recorded: high degree of cooling effect | 43.5 to 72.5 mg/kg | 29.0 to 43.5 mg/kg
CC1CC=C(N2CCCC2)C1=O (centres unmarked) [Compound 2, 5-methyl-2-(1-pyrrolidinyl)-2-cyclopenten-1-one] | long lasting sensation of coolness; also recorded: high degree of cooling effect | 2.6 to 5.2 mg/kg | 4.5 to 9.0 mg/kg
CC1=C(N2CCCCC2)C(=O)CC1 [Compound 3, 3-methyl-2-(1-piperidinyl)-2-cyclopenten-1-one] |  | 80.0 to 120.0 mg/kg | 60.0 to 100.0 mg/kg
CCN(CC)C1=C(C)CCC1=O [Compound 4, 3-methyl-2-diethylamino-2-cyclopenten-1-one] |  | 2.0 to 3.0 mg/kg | 30.0 to 50.0 mg/kg
CC1CC=C(N2CCCCC2)C1=O (centres unmarked) [Compound 5, 5-methyl-2-(1-piperidinyl)-2-cyclopenten-1-one] |  | 12.0 to 20.0 mg/kg | 16.0 to 24.0 mg/kg
CCN(CC)C1=CCC(C)C1=O (centres unmarked) [Compound 6, 5-methyl-2-diethylamino-2-cyclopenten-1-one] | does not substantially decrease the cooling activity | 6.0 to 9.0 mg/kg | 12.0 to 20.0 mg/kg
CCCCN(CCCC)C1=CCC(C)C1=O (centres unmarked) [Compound 7, 5-methyl-2-dibutylamino-2-cyclopenten-1-one] | drastically decreases the cooling activity | 2.4 to 2.8 mg/kg | 48.4 to 67.8 mg/kg
CCCCCCN(CCCCCC)C1=CCC(C)C1=O (centres unmarked) [Compound 8, 5-methyl-2-dihexylamino-2-cyclopenten-1-one] | completely diminishes the cooling activity |  | 
CCC1CC=C(N2CCCC2)C1=O (centres unmarked) [Compound 9, 5-ethyl-2-(1-pyrrolidinyl)-2-cyclopenten-1-one] | significant increase in cooling activity | 13.4 to 22.4 mg/kg | 26.7 to 42.5 mg/kg
CC1C=C(N2CCCC2)C(=O)C1C (centres unmarked) [Compound 10, (E)-4,5-dimethyl-2-(1-pyrrolidinyl)-2-cyclopenten-1-one] | significant increase in cooling activity | 136.0 to 226.6 mg/kg | 68.0 to 113.3 mg/kg
CC1=C(N2CCCC2)C(=O)C(C)C1 (centres unmarked) [Compound 11, 3,5-dimethyl-2-(1-pyrrolidinyl)-2-cyclopenten-1-one] | small effect on cooling activity | 16.0 to 27.0 mg/kg | 32.5 to 53.5 mg/kg
CC1=C(N2CCCC2)C(=O)CC1C (centres unmarked) [Compound 12, 3,4-dimethyl-2-(1-pyrrolidinyl)-2-cyclopenten-1-one] |  | 25.7 to 42.8 mg/kg | 51.3 to 85.5 mg/kg
O=C1C=C(N2CCCC2)CC1 [Compound 13, 3-(1-pyrrolidinyl)-2-cyclopenten-1-one] | loss of cooling activity | 234.0 to 390.0 mg/kg | 
CC1=C(N2CCCC2)CCC1=O [Compound 14, 2-methyl-3-(1-pyrrolidinyl)-2-cyclopenten-1-one] | loss of cooling activity | 92.0 to 138.0 mg/kg | 
O=C1CCCC=C1N1CCCC1 [Compound 15, 2-(1-pyrrolidinyl)-2-cyclohexen-1-one] | significantly decreases cooling activity | 62.0 to 106.0 mg/kg | 495.0 to 830.0 mg/kg
CC1=C(N2CCCC2)C(=O)CCC1 [Compound 16, 3-methyl-2-(1-pyrrolidinyl)-2-cyclohexen-1-one] |  | 45.2 to 75.4 mg/kg | 90.5 to 150.8 mg/kg
CC1=C(N2CCCC2)C(=O)CC(C)(C)C1 [Compound 17, 3,5,5-trimethyl-2-(1-pyrrolidinyl)-2-cyclohexen-1-one] |  | 50.2 to 83.6 mg/kg | 1605.0 to 2675.0 mg/kg
CC1CCC=C(N2CCCC2)C1=O (centres unmarked) [Compound 18, 6-methyl-2-(1-pyrrolidinyl)-2-cyclohexen-1-one] |  | 3.4 to 5.6 mg/kg | 26.9 to 44.8 mg/kg
CC1CC(C)(C)C=C(N2CCCC2)C1=O (centres unmarked) [Compound 19, 4,4,6-trimethyl-2-(1-pyrrolidinyl)-2-cyclohexen-1-one] | significantly decreases cooling activity | 553.0 to 922.0 mg/kg | 2213.0 to 3688.0 mg/kg
CC1CC=C(N2CCOCC2)C1=O (centres unmarked) [Compound 20, 5-methyl-2-(1-morpholino)-2-cyclopenten-1-one] | substantially decreases the cooling effect | 935.0 to 1558.0 mg/kg | 467.0 to 700.8 mg/kg
COC(=O)C1CCCN1C1=CC[C@H](C)C1=O (stereo partly drawn) [Compound 21, (S)-5-methyl-2-(2-methoxycarbonyl-1-pyrrolidinyl)-2-cyclopenten-1-one] | substantially decreases the cooling effect |  | 112.0 to 188.0 mg/kg
CC1=C(N2CCC[C@H]2C(=O)O)C(=O)CC1 [Compound 22, (S)-3-methyl-2-(2-carboxy-l-pyrrolidinyl)-2-cyclopenten-1-one] | substantially decreases the cooling effect |  | 490.0 to 735.0 mg/kg
CC1=C(N2CCCC2)C(=O)CO1 [Compound 23, 5-methyl-4-(1-pyrrolidinyl)-3-(2H)-furanone] | strong increase in cooling activity; also recorded: high degree of cooling effect |  | 1.5 to 3.0 mg/kg
CC1=C(N2CCCC2)C(=O)C(C)O1 (stereo not drawn) [Compound 24, 2,5-dimethyl-4-(l-pyrrolidinyl)-3-(2H)-furanone] |  | 30.0 to 60.0 mg/kg | 100.0 to 140.0 mg/kg
CC1=C(N2CCCC2)C(=O)OC1 [Compound 25, 4-methyl-3-(1-pyrrolidinyl)-2-(5H)-furanone] | dramatically increases cooling activity; also recorded: high degree of cooling effect |  | 0.05 to 0.06 mg/kg
CC1=C(N2CCCC2)C(=O)OC1C (centres unmarked) [Compound 26, 4,5-dimethyl-3-(1-pyrrolidinyl)-2-(5H)-furanone] | dramatically increases cooling activity | 32.0 to 64.0 mg/kg | 2.0 to 4.0 mg/kg
